Molecules are shown by their SMILES.

The nature of this data set: Human HepG2 cell viability assay in 384 well format. The format is toxicity, cell-based. The arrangement: dose 125 nL, time 70.5 hour; concentration not given beside the values. The conditions noted are these: HepG2 cells, read-out: Inhibition.
Turning to `c1cncc(CN2CC[C@@H]3[C@@H]2CCN3Cc2ccc3c(c2)OCO3)c1`, the cytotoxicity at 70.5 h was 0.903%.

As to `CNC(=O)c1cccc(CCNC(=O)N2CCc3ccccc3C2)c1`, the cytotoxicity at 70.5 h was -1.68%.

`COC(=O)CNc1cc(C(=O)NCC(F)(F)F)cc(F)c1C`: the cytotoxicity at 70.5 h is -2.26%.

On to `CCn1nc(C)c(CN2CCC(c3ccc(C(=O)O)cc3)C2)c1C` (stereo not drawn), for which the cytotoxicity at 70.5 h was -2.74%.

As for `CS(=O)(=O)c1cc(Cl)cnc1C1CCN(C(=O)C2CCCO2)CC1` (stereo not drawn), the cytotoxicity at 70.5 h is -5.11%.

With `CC(c1nc(C2CC2)no1)N1CCN(Cc2noc(C3CC3)n2)CC1` (stereo not drawn), the cytotoxicity at 70.5 h is -2.08%.

Take `Cc1cnc(Cn2cc(-c3cccc(C(C)N(C)C)c3)nn2)cn1` (stereo not drawn): the cytotoxicity at 70.5 h was -4.71%.

`Cc1noc(C)c1CN1CCCCC1c1nc(-c2ccccc2)no1` (stereo not drawn): the cytotoxicity at 70.5 h is -9.69%.

In the case of `N#Cc1c(Cl)nsc1NCc1cccnc1OCC(F)(F)F`, the cytotoxicity at 70.5 h is -105%.

Turning to `Cc1ccc2c(c1)nc1n2[C@@H](CNC(=O)c2cccnc2)COC1`, the cytotoxicity at 70.5 h is -4.19%.

For the compound `NS(=O)(=O)CCNC(=O)c1nnn(-c2ccc(F)cc2)c1C1CC1`, the cytotoxicity at 70.5 h is -2.85%.

Consider `Cn1cc(CNCCc2cccnc2)c(-c2cccnc2)n1`, for which the cytotoxicity at 70.5 h is 22.8%.

Turning to `CC(=O)N1CCN(Cc2c(C)ccc3ccccc23)CC(O)C1` (stereo not drawn), the cytotoxicity at 70.5 h is -6.49%.

`O=C(NCc1cccnc1)C1=NOC2(CCN(C3CCOCC3)C2)C1` (stereo not drawn): the cytotoxicity at 70.5 h is -11.3%.

In the case of `COc1ccccc1Oc1ncccc1CNC(=O)CN1CCCC1=O`, the cytotoxicity at 70.5 h was -4.31%.

Take `O=C(c1ccc[nH]1)N1C[C@H](OCc2cccnc2)[C@H]2COC[C@H]21`: the cytotoxicity at 70.5 h is 5.01%.

As for `CC(=O)N1CCC2(CC1)c1ncc(-c3cccnc3)n1CCN2C`, the cytotoxicity at 70.5 h came to 0.401%.

For `CC(C)(C)n1nnnc1CN(Cc1ccccc1)Cc1ccc(Cl)cc1`, the cytotoxicity at 70.5 h stood at 8.17%.

On to `CC(C)(C)n1cc(NC(=O)C2CN(Cc3ccccc3)CCO2)cn1` (stereo not drawn), for which the cytotoxicity at 70.5 h was -0.308%.

Turning to `CNc1nccc(-c2cn(C)nc2C)n1`, the cytotoxicity at 70.5 h turned out to be 1.94%.

Turning to `CC(C)c1nnsc1CN1CCc2[nH]nc(-c3ccc(F)c(F)c3)c2C1`, the cytotoxicity at 70.5 h was -11.6%.

Consider `O=C(NCc1cncc2c1CCN(CC1CCOC1)C2)c1ccno1` (stereo not drawn), for which the cytotoxicity at 70.5 h is -6.93%.

As for `Cc1nc(CO[C@@H]2CN(Cc3nccs3)[C@@H]3COC[C@@H]32)cs1`, the cytotoxicity at 70.5 h was -6.11%.

For the compound `O=C(COc1coc(CN2CCOCC2)cc1=O)c1ccc(Cl)cc1`, the cytotoxicity at 70.5 h was -9.03%.

Turning to `CC(c1cccc(-c2nccn2CCc2cn[nH]c2)c1)N(C)C` (stereo not drawn), the cytotoxicity at 70.5 h was determined as 4.99%.

In the case of `Cn1cc(NC(=O)c2cccc(Cl)c2)c(=O)n(C)c1=O`, the cytotoxicity at 70.5 h came out at 24%.

As to `Cc1cnc(N2CC[C@@H]3O[C@H](COCc4ccccn4)CC[C@@H]32)nc1`, the cytotoxicity at 70.5 h was -1.58%.

Regarding `O=C1CC(NS(=O)(=O)N2CCOCC2)CN1Cc1ccc(F)cc1` (stereo not drawn), the cytotoxicity at 70.5 h was -2.75%.

`CC(C)c1cnc(CN(C)C2CCN(CCn3cc(C#N)cn3)C2)o1` (stereo not drawn): the cytotoxicity at 70.5 h was -2.83%.

As for `COc1nc2ccccc2cc1CN1CCC(CNS(C)(=O)=O)C1` (stereo not drawn), the cytotoxicity at 70.5 h is 0.512%.

As to `Cn1cc(N2CCCC(Nc3ccc4c(c3)CCC(=O)N4)C2=O)cn1` (stereo not drawn), the cytotoxicity at 70.5 h is 0.589%.

On to `Cc1[nH]/c(=N\C(=O)c2csc(NC3CCCC3)n2)sc1C`, for which the cytotoxicity at 70.5 h is 31.2%.

For the compound `CCOCc1nc(N2CCOCC2)sc1C(=O)NCCCc1ccco1`, the cytotoxicity at 70.5 h came to 0.741%.

Take `Cc1cccn2cc(CN3CCCC(c4noc(C5CC5)n4)C3)nc12` (stereo not drawn): the cytotoxicity at 70.5 h came to 5.44%.

On to `CC(C)c1nccn1-c1cccc(C2CCCN2S(=O)(=O)N(C)C)n1` (stereo not drawn), for which the cytotoxicity at 70.5 h was 0.791%.

For the compound `CCc1ncncc1C(=O)N1CCCC(n2nc(C)nc2C)C1` (stereo not drawn), the cytotoxicity at 70.5 h was -1.23%.

For the compound `O=C(Nc1nncs1)C1CSCN1C(=O)C1CCCC1` (stereo not drawn), the cytotoxicity at 70.5 h is -3.88%.

As to `Cc1cc(CS(=O)(=O)NC2CCCc3ccccc32)on1` (stereo not drawn), the cytotoxicity at 70.5 h is -1.17%.

`O=c1oc(-c2cccs2)nn1CC1(O)CCCCC1`: the cytotoxicity at 70.5 h was -1.35%.

As for `CCNC(=O)CNC(=O)c1ccn(S(=O)(=O)c2ccc(C)cc2)c1`, the cytotoxicity at 70.5 h worked out at 1.83%.

For the compound `CCn1cc(NC(=O)N2CCN(C(=O)Oc3ccccc3)CC2)cn1`, the cytotoxicity at 70.5 h is -4.12%.

For `Cn1cc(CN2CCC3(CCCN(C(=O)c4cnccn4)C3)C2)cn1` (stereo not drawn), the cytotoxicity at 70.5 h was -5.89%.

In the case of `CCc1cc(CN(C)C(=O)c2cnon2)on1`, the cytotoxicity at 70.5 h was -2.96%.

Take `CC(OCC1CC1)C(=O)N1CCCN(Cc2cscn2)CC1` (stereo not drawn): the cytotoxicity at 70.5 h is 1.88%.

Regarding `CCN(Cc1ccco1)C(=O)C1=NN(c2ccccc2)C(=O)CN1`, the cytotoxicity at 70.5 h came out at 17.6%.

On to `CCOC(=O)c1cc2n(n1)CCCO2`, for which the cytotoxicity at 70.5 h worked out at 22.1%.

Take `O=C(c1cccc(Cl)c1)N1CC[C@@H](N2CCC(O)CC2)[C@H](O)C1`: the cytotoxicity at 70.5 h stood at 16%.

With `COC(C)(C)C(=O)N1CCC(c2cc(CN(C)C)n(C)n2)CC1`, the cytotoxicity at 70.5 h was -10.8%.

Take `CN1CCCCC12CCN(C(=O)c1cccn1C)CC2`: the cytotoxicity at 70.5 h was -7.36%.

For the compound `Fc1ccccc1Oc1nccnc1C1CCCN(C2CCOCC2)C1` (stereo not drawn), the cytotoxicity at 70.5 h was -9%.

`CCN1CC2(CCN(CCOCCO)CC2)CC(c2ccccc2)C1=O` (stereo not drawn): the cytotoxicity at 70.5 h stood at 3.81%.

Take `Cc1cnn(CC2CCCN2Cc2cc(=O)n3cccc(C)c3n2)c1` (stereo not drawn): the cytotoxicity at 70.5 h is -7.45%.

As for `O=C1Nc2ccccc2/C1=C1\CCCCN1`, the cytotoxicity at 70.5 h is -10.3%.

On to `Cc1cnn(CC2CCCN2CC(=O)Nc2cc(C)on2)c1` (stereo not drawn), for which the cytotoxicity at 70.5 h turned out to be 0.558%.

Take `O=C(c1ccoc1)N1CC[C@@H]2O[C@H](COCc3ccccn3)CC[C@@H]21`: the cytotoxicity at 70.5 h is -11.6%.

In the case of `CC(C)c1nnc(CNc2ccc(SC(F)(F)F)cc2)o1`, the cytotoxicity at 70.5 h is 36.9%.

On to `CNc1ccc(CC2CCCN(C(=O)c3c(C)noc3C)C2)nn1` (stereo not drawn), for which the cytotoxicity at 70.5 h was -13.8%.

Consider `Cn1c(CN2CCOCC2)cc(=O)c(O)c1CN1CCOCC1`, for which the cytotoxicity at 70.5 h is -12.3%.

As for `CC(C)c1noc(CCCC(=O)N2CCC(Cc3cccnc3)CC2)n1`, the cytotoxicity at 70.5 h is -20.7%.

Turning to `COc1ccc(CN2C[C@H]3CN(Cc4ccncc4)C(=O)[C@H]3C2)cc1`, the cytotoxicity at 70.5 h was -7.43%.

For `CN(Cc1ccc(F)cc1)C(=O)CN1CCOC(Cn2cncn2)C1` (stereo not drawn), the cytotoxicity at 70.5 h was found to be 40.3%.

As for `Cc1noc(C)c1-c1cnc(CC2CCN(C(=O)c3cc[nH]n3)C2)cn1` (stereo not drawn), the cytotoxicity at 70.5 h was -12%.

Turning to `CC(C)CCOc1ccc(C(C)NC(=O)Cn2cccnc2=O)cc1` (stereo not drawn), the cytotoxicity at 70.5 h was -5.94%.

Take `COc1cccc([C@@H]2CN(C(=O)c3ccc(C)cc3O)C[C@H]2C(=O)O)c1`: the cytotoxicity at 70.5 h was -5.65%.

For the compound `COc1ccc(CN(C)[C@@H]2CN(C(=O)c3cccnc3)C[C@H]2O)cc1`, the cytotoxicity at 70.5 h was found to be 2.56%.

For the compound `O=C(c1ncoc1-c1ccco1)N1CCCN(c2ncccn2)CC1`, the cytotoxicity at 70.5 h is -12.9%.

Consider `O=S(=O)(NCc1ccccc1Cn1cncn1)C1CCCC1`, for which the cytotoxicity at 70.5 h was 2.05%.

Regarding `COc1ccc(F)cc1NC(=O)NCC1(C)COC1`, the cytotoxicity at 70.5 h is 0.338%.

For the compound `Cn1ccc(C(=O)N2CCCC(CNS(C)(=O)=O)C2)cc1=O` (stereo not drawn), the cytotoxicity at 70.5 h is -8.6%.

`CCC(CN1CCCC1)NC(=O)C1(c2cccc(F)c2)CC1` (stereo not drawn): the cytotoxicity at 70.5 h is -6.19%.

Turning to `CCc1nnc(CN(CC)C(=O)C(C)n2ccnc2C(C)C)o1` (stereo not drawn), the cytotoxicity at 70.5 h was -5.37%.

In the case of `CCSCCC(=O)Nc1ncn(Cc2cccnc2)n1`, the cytotoxicity at 70.5 h was -9.89%.

In the case of `Cc1noc(C)c1CNC(=O)C(C)Oc1ccccc1F` (stereo not drawn), the cytotoxicity at 70.5 h was -4.89%.

As to `O=C(NCC(=O)N1CCCC(n2cncn2)C1)OCc1ccccc1` (stereo not drawn), the cytotoxicity at 70.5 h was -0.265%.

As to `O=C(CCOCC(F)(F)F)N1CCCC(n2ccnc2)C1` (stereo not drawn), the cytotoxicity at 70.5 h is -6.65%.

`Cc1nnc([C@@]23CCO[C@@H]2CCN(Cc2cccc4ccccc24)C3)o1`: the cytotoxicity at 70.5 h is -6.43%.

On to `NC(=O)C1(CCCc2ccccn2)CCCN(CCO)C1` (stereo not drawn), for which the cytotoxicity at 70.5 h was -4.87%.

Turning to `Nc1nc2c(c(N3CCN(C(=O)c4cccs4)CC3)n1)CCCC2`, the cytotoxicity at 70.5 h was -2.27%.

For the compound `Cc1nc(CN2CCc3nn(C)c(=O)cc3C2)oc1C`, the cytotoxicity at 70.5 h was -9.42%.

With `Cc1cccc(CC(=O)N2CCOCC2c2c(C)n[nH]c2C)c1` (stereo not drawn), the cytotoxicity at 70.5 h was -18.3%.

As for `O=C1CC2(CCN(Cc3ccsc3)C2)CN1c1ccc2c(c1)OCO2` (stereo not drawn), the cytotoxicity at 70.5 h was found to be 10.9%.

Regarding `CN(C)C(=O)CN1CCC2(CCCN(Cc3cccnc3)C2)C1=O` (stereo not drawn), the cytotoxicity at 70.5 h is -12%.

As to `CCc1ncc2c(n1)CN(CCCOc1ccc(C#N)cc1)CC2`, the cytotoxicity at 70.5 h was -0.432%.

As to `Cc1cnn(CCNCc2ccccc2C#N)c1`, the cytotoxicity at 70.5 h turned out to be 13.2%.

On to `O=C1CC[C@@H]2[C@@H](CCN2C(=O)c2ccsc2)N1Cc1ccncc1`, for which the cytotoxicity at 70.5 h was determined as 0.223%.

As for `COc1ccc2c(c1)OCC(CNc1cc(N)nc(SC)n1)C2` (stereo not drawn), the cytotoxicity at 70.5 h was -0.598%.

Turning to `CS(=O)(=O)CCN1CCN(c2ccc(Cl)cn2)CC1`, the cytotoxicity at 70.5 h stood at 1.44%.

As to `CCOc1ncccc1NC(=O)N1CCN(Cc2ccncc2)CC1`, the cytotoxicity at 70.5 h is -4.21%.

Take `Cc1cnn(CC2CCCN2C(=O)c2cc(Cl)ccc2F)c1` (stereo not drawn): the cytotoxicity at 70.5 h stood at 28.1%.

As for `O=C([C@@H]1Cc2[nH]cnc2CN1Cc1cc2ccccc2o1)N1CCCC1`, the cytotoxicity at 70.5 h was 8.38%.

On to `CS(=O)(=O)N1CCN(c2cc(N3CCCC3CO)ncn2)CC1` (stereo not drawn), for which the cytotoxicity at 70.5 h was -7.63%.

`Cc1ccc(CN2CCC3(CCCN3C(=O)C(C)C)CC2)o1`: the cytotoxicity at 70.5 h was determined as 5%.

`Cc1nn(C)c(N(C)C)c1CNCC(O)c1ccccc1` (stereo not drawn): the cytotoxicity at 70.5 h stood at 0.0769%.

As for `Cc1ccc(C)c(OCc2cc(C(=O)N(C)Cc3cnn(C)c3)no2)c1`, the cytotoxicity at 70.5 h is -8.7%.

With `O=C(Nc1ccc2c(c1)OCO2)N1CCN(CCc2ccccc2)CC1`, the cytotoxicity at 70.5 h was -6.84%.

For `CC(C#N)CSc1ccccc1NCC(=O)Nc1ccc(F)cc1` (stereo not drawn), the cytotoxicity at 70.5 h worked out at 2.62%.

In the case of `CC(O)c1cn(CC2CCN(C(=O)CN3CCCC3=O)CC2)nn1` (stereo not drawn), the cytotoxicity at 70.5 h was -10.1%.

Turning to `OC(COCc1cccs1)CN1CCc2c(ncn2C2CC2)C1` (stereo not drawn), the cytotoxicity at 70.5 h was -2.16%.

The record behind these values is ChEMBL document CHEMBL3507680, “University of Dundee, Gates Library screen for HepG2 cell viability”.
